Assay results as given in PubChem BioAssay (NCI).
Several values for one entry are separate records, joined by “and”; a condition that tells them apart may be missing. Equal entries are not always repeated.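 Results reflect a 48-hour exposure of cells in 96-well plates to compound at five concentrations. GI50 marks 50% less growth. The concentration for full growth arrest is given as TGI.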

Tests used:
Assay in all cases: inhibition of tumour cell growth, NCI panel, 48 h
HCC-2998 colon = test system: HCC-2998 colon
IGROV1 ovarian = test system: IGROV1 ovarian
K-562 leukemia = test system: K-562 leukemia
MALME-3M melanoma = test system: MALME-3M melanoma
NCI-H23 lung = test system: NCI-H23 lung
OVCAR-3 ovarian = test system: OVCAR-3 ovarian
OVCAR-8 ovarian = test system: OVCAR-8 ovarian
SF-268 CNS = test system: SF-268 CNS
SNB-19 CNS = test system: SNB-19 CNS
SW-620 colon = test system: SW-620 colon

SMILES | GI50 (HCC-2998 colon) [µM] | TGI (HCC-2998 colon) | GI50 (IGROV1 ovarian) [µM] | TGI (IGROV1 ovarian) | GI50 (K-562 leukemia) [µM] | TGI (K-562 leukemia) | GI50 (MALME-3M melanoma) [µM] | TGI (MALME-3M melanoma) | GI50 (NCI-H23 lung) [µM] | TGI (NCI-H23 lung) | GI50 (OVCAR-3 ovarian) [µM] | TGI (OVCAR-3 ovarian) | GI50 (OVCAR-8 ovarian) [µM] | TGI (OVCAR-8 ovarian) | GI50 (SF-268 CNS) [µM] | TGI (SF-268 CNS) | GI50 (SNB-19 CNS) [µM] | TGI (SNB-19 CNS) | GI50 (SW-620 colon) [µM] | TGI (SW-620 colon)
[Cu].c1ccc2c(c1)C1=NC2=NC2=NC(=NC3=NC(=NC4=NC(=N1)c1ccccc14)c1ccccc13)c1ccccc12 | > 100 | > 100 µM | > 100 | > 100 µM | > 100 | > 100 µM | > 100 | > 100 µM | > 100 | > 100 µM | > 100 | > 100 µM | > 100 | > 100 µM | > 100 | > 100 µM | > 100 | > 100 µM | > 100 | > 100 µM
O=S(=O)(c1ccccc1)N1CCC1c1ccccc1 (stereo unspecified) |  | > 100 µM |  | > 100 µM |  | > 100 µM |  | > 100 µM |  | > 100 µM |  | > 100 µM |  | > 100 µM |  | > 100 µM |  | > 100 µM |  | > 100 µM
CCCN1CCC(Oc2cc(Nc3nc(Nc4cccc(F)c4C(N)=O)c4cc[nH]c4n3)c(OC)cc2Cl)CC1 | 0.994 | 3.84 µM | 3.86 | 9.22 µM | 0.62 | 1.73 µM | 3.81 | 8.4 µM | 3.49 | 8.26 µM | 4.18 | 7.99 µM | 4.11 | 9.52 µM | 3.79 | 8.32 µM | 4.18 | 8.33 µM | 0.785 | 3.57 µM
Clc1cccc(-c2cc(-c3ccc4c(c3)OCCO4)[nH]n2)c1 | 7.26 | 51.4 µM | 2.47 | 36.7 µM | 1.04 | 250 µM | 5.22 | 47.5 µM | 8.66 | 57.4 µM | 1.95 | 31.3 µM | 6.74 | 53.3 µM | 12.4 | 57.1 µM | 21.6 | 59.3 µM | 1.09 | 44.9 µM
Nc1nc(N)c2cc(S(=O)(=O)c3cccc(C(F)(F)F)c3)ccc2n1 | 5.03 | > 100 µM | 5.28 | > 100 µM | 0.682 | > 100 µM | 5.74 | > 100 µM | 3.63 | > 100 µM | 6 | > 100 µM | 4.22 | > 100 µM | 4.57 | > 100 µM | 5.44 | > 100 µM | 0.989 | > 100 µM
CCOc1cc(/C=C/C(=O)CC(=O)/C=C/c2ccc(OC(=O)CNc3nc4ccc(OC)cc4s3)c(OCC)c2)ccc1OC(=O)CNc1nc2ccc(OC)cc2s1 | 3.16 | 14.8 µM |  |  | 2.71 | > 100 µM | 12.3 | 27.3 µM | 7.78 | 75.4 µM | 4.45 | 29 µM | 2.5 | 6.32 µM | 3.12 | 25.8 µM | 6.02 | 19.4 µM | 3.78 | 13.2 µM
O=c1[nH]c(=O)n(Cc2ccc(C34CC5CC(CC(C5)C3)C4)c(O)c2)cc1F | 14.5 | 28.1 µM |  |  | 3.49 | 18.2 µM | 14.6 | 30.9 µM | 12.5 | 27.2 µM | 3.74 | 17.8 µM |  |  | 18.5 | 65.6 µM | 15.6 | 34 µM | 13.5 | 34.2 µM
CCOP(=O)(OCC)C(C(=O)OC)C(=O)C(=O)Nc1cccc([N+](=O)[O-])c1 (stereo unspecified) |  | > 100 µM |  | > 100 µM |  | > 100 µM |  | > 100 µM |  | > 100 µM |  | > 100 µM |  | > 100 µM |  | > 100 µM |  | > 100 µM |  | > 100 µM
CN1CCN(CCCOC(=O)c2c3c(n4ccccc24)C(=O)c2ncccc2C3=O)CC1 | < 0.0135 | 1.98 µM | < 0.0194 | 4.71 µM | < 0.0113 |  | 0.0265 | 1.14 µM | < 0.01 | < 0.0172 µM | 0.0403 | 4.95 µM | < 0.011 | 11.9 µM | < 0.01 | 10.3 µM | < 0.01 | 1.45 µM | < 0.01 | 0.0385 µM
CN(c1ccccc1)c1nc(=[N+](C)C)ss1 |  | > 100 µM |  | > 100 µM |  | > 100 µM |  | > 100 µM |  | > 100 µM |  |  |  | > 100 µM |  | > 100 µM |  | > 100 µM |  | > 100 µM
Cc1cc(C)c2c(c1)CSCc1cc(C)cc(C)c1-2 |  | > 100 µM |  | > 100 µM |  | > 100 µM |  | 56.8 µM |  | > 100 µM |  | > 100 µM |  | > 100 µM |  | > 100 µM |  | > 100 µM |  | > 100 µM
CN(C)CCN1C(=O)c2cccc3cc(N)cc(c23)C1=O | 4.69 | 22.1 µM and 12 µM | 2.68 | > 44.1 µM and 20.8 µM |  | > 100 µM and 37.4 µM | 2.41 | 9.85 µM and 8.29 µM | 3.43 | 22.7 µM and 14.1 µM | 4.98 | 25.9 µM and 26.4 µM | 2.46 | 30.5 µM and 7.38 µM | 3.83 | 25.6 µM and 28.9 µM | 4.7 | > 88.9 µM and 18.8 µM | 2.14 | 24.3 µM and 15.9 µM
O=C(Nc1ccc(Nc2ccc3c(c2)C(=O)c2ccccc2C3=O)c2c1C(=O)c1ccccc1C2=O)c1ccccc1 |  | 86.9 µM |  | > 100 µM |  | > 100 µM |  | > 100 µM |  | > 100 µM |  | > 100 µM |  | > 100 µM |  | > 100 µM |  | > 100 µM |  | > 100 µM
O=c1oc2ccccc2cc1P(=O)(O)O |  | > 100 µM |  | > 100 µM |  | > 100 µM |  | > 100 µM |  | > 100 µM |  | > 100 µM |  | > 100 µM |  | > 100 µM |  | > 100 µM |  | > 100 µM
OC(c1ccccc1)c1c(-c2ccccc2)[nH]c(-c2ccccc2)c1C(O)c1ccccc1 (stereo unspecified) |  | 22.4 µM |  | 12 µM |  | 4.64 µM |  | 7.17 µM |  | 16.5 µM |  | 8.33 µM |  |  |  | 23 µM |  | 23.4 µM |  | 29.1 µM
CCN(CC)CCN1C(=O)C2C3C(C)=CC(OC(C)=O)(CC3C)C2C1=O (stereo unspecified) | > 100 | > 100 µM | > 100 | > 100 µM | > 100 | > 100 µM | > 100 | > 100 µM | > 100 | > 100 µM |  |  | > 100 | > 100 µM | > 100 | > 100 µM | > 100 | > 100 µM | > 100 | > 100 µM
Clc1ccc(NCNC2Nc3ccccc3N2)cc1Cl |  | > 100 µM |  |  |  | > 100 µM |  | > 100 µM |  | > 100 µM |  | > 100 µM |  | 46.6 µM |  | > 100 µM |  | > 100 µM |  | > 100 µM
CC1COS(=O)N1c1ccccc1 (stereo unspecified) |  | > 100 µM |  | > 100 µM |  | > 100 µM |  | > 100 µM |  | > 100 µM |  |  |  | > 100 µM |  | > 100 µM |  |  |  | > 100 µM
Oc1ccc(CCNc2nc3ccccc3c3[nH]c4ccccc4c23)cc1O | 3.54 | 14.1 µM |  |  | 1.83 | 4.13 µM | 2.23 | 6.28 µM | 6.87 | 22.7 µM | 1.77 | 3.7 µM | 1.9 | 3.85 µM | 5.7 | 30.1 µM | 3.06 | 11.2 µM | 1.66 | 3.44 µM
C=CC(=O)N1CCN([C@@H](CC2CC2)c2ccc([C@H](C)Nc3ncc4c(n3)N(CC)C(=O)OC4)cc2)CC1 | 13 | 28 µM | 4.58 | 17.5 µM | 5.34 | 69.5 µM | 15.9 | 30.8 µM |  |  | 12 | 26.5 µM | 11.1 | 26.7 µM | 11.7 | 28.5 µM | 14.4 | 27.8 µM | 14.2 | 31.1 µM
O=C(O)c1ccccc1NS(=O)(=O)c1ccc(Cl)cc1 |  | > 100 µM |  | > 100 µM |  | > 100 µM |  | > 100 µM |  | > 100 µM |  |  |  | > 100 µM |  | > 100 µM |  | > 100 µM |  | > 100 µM
CN(N=O)C(=O)NC(CCCCNC(=O)OCc1ccccc1)C(=O)OCc1ccccc1 (stereo unspecified) |  | > 100 µM |  | > 100 µM |  | > 100 µM |  | 89.6 µM |  | 51.3 µM |  | 98.1 µM |  | 36.7 µM |  |  |  | > 100 µM |  | > 100 µM
CCN(CC)CC(C(=O)Nc1c(C)cccc1C)/C(C)=N\NC(=S)NN (stereo unspecified) |  | > 100 µM |  | > 100 µM |  | > 100 µM |  | > 100 µM |  | > 100 µM |  | > 100 µM |  | > 100 µM |  | > 100 µM |  |  |  | > 100 µM
O=C1c2ccccc2C(=O)N1C/C=N/NS(=O)(=O)c1cccc([N+](=O)[O-])c1 |  | > 100 µM |  | > 100 µM |  | > 100 µM |  | > 100 µM |  | > 100 µM |  |  |  | > 100 µM |  | > 100 µM |  | > 100 µM |  | > 100 µM
NCCNCCNCc1c2ccccc2c(CNCCNCCN)c2ccccc12 |  | > 100 µM |  | > 100 µM |  | > 100 µM |  | > 100 µM |  | > 100 µM |  | > 100 µM |  | > 100 µM |  | > 100 µM |  |  |  | > 100 µM
